Assay results: US11866433B2, “Diarylthiohydantoin compound as androgen receptor antagonist” (CHIA TAI TIANQING PHARMACEUTICAL GROUP CO., LTD., priority 2017, dated 2024)

How the values were obtained:
Format in all cases: in vivo
[1] = Pharmacokinetic test of Compound 10 in mice (intravenous and intragastric); conditions: mouse, plasma, male CD-1 mice; for AUC(0-inf): read-out: Curve Area (0-inf) AUC0-inf; for AUC(0-t): read-out: Curve Area (0-t) AUC0-last; for half-life: read-out: Half Life T1/2 (converted)
Method: Taking male CD-1 mice as test animals, drug concentrations in plasma at different moments after intravenous and intragastric administration of Compound 10 to the mice were determined by the LC/MS/MS method. The pharmacokinetic behavior of Compound 10 in mice was investigated and its pharmacokinetic profile was evaluated.
2.2 Test Animals: Four healthy adult male CD-1 mice were divided into 2 groups, with 2 mice in each group, according to the principle of similar body weight. The animals were purchased from Shanghai Super-BK Laboratory Animal Co., Ltd., with Animal Production License No.: SCXK (Shanghai) 2013-0016.
2.3 Drug Preparation An appropriate amount of sample was weighed, and an appropriate amount of DMSO, PEG400 and water were added successively at a volume ratio of 10:40:50. After stirring and ultrasonic processing, the resulting mixture reached a clear solution state of 0.4 mg/mL for intravenous administration.
An appropriate amount of sample was weighed, and dissolved in a solution of 0.5% CMC+0.2% Tween 80. After stirring and ultrasonic processing, the resulting mixture reached a uniform suspension state of 0.4 mg/mL for intragastric administration.
Four male CD-1 mice were divided into 2 groups, and fasted overnight. The first group was intravenously administered at an administration volume of 2.5 mL/kg in a dose of 1 mg/kg; and the second group was intragastrically administered at an administration volume of 5 mL/kg in a dose of 2 mg/kg.
(§1) After Compound 10 was intravenously administered to the male CD-1 mice, 30 μL of blood was collected at 0.0833, 0.25, 0.5, 1, 2, 4, 8, and 24 h respectively, and placed in test tubes containing 2 μL of EDTA-K2. After Compound 10 was administered to the intragastric administration group, 30 μL of blood was collected at 0.25, 0.5, 1, 2, 4, 8, and 24 h respectively, and placed in test tubes containing 2 μL of EDTA-K2. The test tubes were centrifuged at 3000 g for 15 min to separate the plasma, which was stored at −60° C. The animals were allowed to eat 2 hours after administration.
(§2) After intravenous and intragastric administration to the mice, the content of the test compound in plasma was determined by the LC/MS/MS method. The linear range of the method was 2.00-6000 nmol/L; and the plasma samples were analyzed after the treatment with acetonitrile precipitated protein.

[2] = Tissue distribution test of Compound 27 and Compound 10 (plasma and brain); conditions: intragastric 2 mg/kg, 2 h after administration, male CD-1 mice
Method: Taking male CD-1 mice as test animals, drug concentrations in plasma and brain after intragastric administration of Compound 27 and Compound 10 to the mice were determined by the LC/MS/MS method, respectively.
2.2 Test Animals: Six healthy adult male CD-1 mice were divided into 2 groups, with 3 mice in each group, according to the principle of similar body weight. The animals were purchased from Shanghai Super-BK Laboratory Animal Co., Ltd., with Animal Production License No.: SCXK (Shanghai) 2013-0016.
An appropriate amount of sample was weighed, and an appropriate amount of DMSO, PEG400 and water were added successively at a volume ratio of 10:40:50. After stirring and ultrasonic processing, the resulting mixture reached a clear solution state of 0.4 mg/mL.
Six male CD-1 mice were divided into 2 groups, fasted overnight, and intragastrically administered at an administration volume of 5 mL/kg in a dose of 2 mg/kg.
(§3) After Compound 27 and Compound 10 were intragastrically administered to the male CD-1 mice, 100 μL of blood was collected by cardiac puncture at 2 h, placed in a test tube containing 2 μl of EDTA-K2, and centrifuged at 3000 g for 15 min to separate 50 μL of plasma, which was stored at −60° C. Meanwhile, brain tissues were collected, washed, then homogenized with 5-fold 15 mM PBS/MeOH (v:v, 2:1), and stored at −60° C. The animals were allowed to eat 2 hours after administration.
(§4) After intragastric administration to the mice, the content of the test compound in plasma and brain was determined by the LC/MS/MS method. The linear range of the method was 2.00-6000 nmol/L; and the plasma samples were analyzed after the treatment with acetonitrile precipitated protein.

[3] = Tissue distribution test of Compound 35 and Compound 58 (plasma and brain); conditions: intragastric 2 mg/kg, 4 h after administration, male CD-1 mice; for Kp at 4 h / concentration at 4 h: mouse, oral; for Kp at 4 h: brain / plasma, read-out: Brain to Blood Ratio; for concentration at 4 h: plasma
Method: Taking male CD-1 mice as test animals, drug concentrations in plasma and brain after intragastric administration of Compound 35 and Compound 58 to the mice were determined by the LC/MS/MS method, respectively.
2.2 Test Animals: Two healthy adult male CD-1 mice. The animals were purchased from Shanghai Sippr-BK Laboratory Animal Co., Ltd.
An appropriate amount of sample was weighed, and added in a solution of 0.5% CMC+0.2% Tween in water. After stirring and ultrasonic processing, the resulting mixture reached a suspension state of 0.4 mg/mL.
Two male CD-1 mice were fasted overnight, and intragastrically administered at an administration volume of 5 mL/kg in a dose of 2 mg/kg.
as §3, with “Compound 35” for “Compound 27”, “Compound 58” for “Compound 10”, “at 4” for “at 2”, “separate 30” for “separate 50”, “with 9-fold” for “with 5-fold”, “eat 4” for “eat 2”
as §4

[4] = Pharmacokinetic test of Compound 35 and Compound 58 in mice (intravenous and intragastric); conditions: mouse, plasma, male CD-1 mice; for AUC(0-t): read-out: Curve Area (0-t) AUC0-last; for Cmax: read-out: Plasma Concentration Cmax; for Tmax: read-out: Time to Peak Tmax; for Vd: read-out: Apparent Volume of Distribution Vdss; for clearance: read-out: Clearance Rate CI; for AUC(0-inf): read-out: Curve Area (0-inf) AUC0-inf; for half-life: read-out: Half Life T1/2 (converted)
Method: With reference to Example 76, the pharmacokinetic behaviors of Compound 35 and Compound 58 in mice were investigated and their pharmacokinetic profiles were evaluated.
2. Experimental Protocol Refers to Example 76.
as §1, with “Compound 35 and Compound 58 were” for “Compound 10 was”, “was cross-collected” for “was collected”, “8, 24,” for “8,”, “and 48” for “and 24”, “tubes was” for “tubes were”, “eat 4” for “eat 2”
as §2

[5] = po, intragastric administration, 2 mg/kg
[6] = intravenous administration, 1 mg/kg

In the case of `CCc1nc(OCCO)c2cc(N3C(=S)N(c4ccc(C#N)c(C(F)(F)F)c4)C(=O)C3(C)C)cc(F)c2n1` [Compound 10], the bioavailability [1, 5] is reported as 41.7%, the AUC(0-inf) [1, 5] is reported as 27.9 µM·h and the AUC(0-t) [1, 5] is reported as 26.3 µM·h. For the same molecule, the half-life [1, 5] was 5.5 h, the Cmax ([1]; po, intragastric administration, 2 mg/kg, read-out: Plasma Concentration Cmax) was 2.77 µM and the Tmax ([1]; po, intragastric administration, 2 mg/kg, read-out: Time to Peak Tmax) was 4 h. The Vd ([1]; intravenous administration, 1 mg/kg, read-out: Apparent Volume of Distribution Vdss) was 0.384 L/kg, the clearance ([1]; intravenous administration, 1 mg/kg, read-out: Clearance Rate CI) was 0.912 mL/min/kg and the AUC(0-inf) [1, 6] was 33.5 µM·h. The AUC(0-t) [1, 6] was 32.3 µM·h, the half-life [1, 6] was 4.88 h and the “Concentration in Brain” value [2] was 67.38 ± 44.5 nmol/kg. For the same molecule, the Kp at 2 h ([2]; mouse, brain / plasma, oral, read-out: Brain to Blood Ratio) was 0.0133 ± 0.0006 and the concentration at 2 h ([2]; mouse, plasma, oral) was 5 ± 3.16 µM.
For `CCc1cc(=O)n2cc(N3C(=S)N(c4ccc(C#N)c(C(F)(F)F)c4)C(=O)C3(C)C)cc(F)c2n1` [Compound 35], the “Concentration in Brain” value [3] was 281 nmol/kg, the Kp at 4 h [3] was 0.0742 and the concentration at 4 h [3] was 4.12 µM. The bioavailability [4, 5] was 94%, the AUC(0-t) [4, 5] was 110 µM·h and the Cmax [4, 5] was 5.78 µM. For the same molecule, the Tmax [4, 5] was 6 h, the Vd [4, 6] was 0.667 L/kg and the clearance [4, 6] was 0.189 mL/min/kg. For the same molecule, the AUC(0-inf) [4, 6] was 194 µM·h, the AUC(0-t) [4, 6] was 58.7 µM·h and the half-life [4, 6] was 45.1 h.
In the case of `CCc1cc(=O)n2cc(N3C(=S)N(c4ccc(C#N)c(Cl)c4)C(=O)C3(C)C)cc(F)c2n1` [Compound 58], the “Concentration in Brain” value [3] is reported as 265 nmol/kg, the Kp at 4 h [3] is reported as 0.0322 and the concentration at 4 h [3] is reported as 8.26 µM. For the same molecule, the AUC(0-t) [4, 5] was 370 µM·h, the Cmax [4, 5] was 12.8 µM and the Tmax [4, 5] was 8 h. It also gave a Vd [4, 6] of 0.248 L/kg, a clearance [4, 6] of 0.0794 mL/min/kg and an AUC(0-inf) [4, 6] of 447 µM·h. For the same molecule, the AUC(0-t) [4, 6] was 271 µM·h and the half-life [4, 6] was 36.6 h.
